Experimental data as given in patent US20050220996A1, “Process for coating a pharmaceutical particle” (priority 2002, published 2005).

Conditions: magnetic stirrer, Tween 80 as wetting agent (FIG. 11)
Text: The dissolution behavior of NaCl in water was studied by measuring conductivity as a function of time while stirring at a constant rate using a magnetic stirrer. To ensure complete wetting, Tween 80 was used as a wetting agent.

Sodium chloride [Uncoated]
conductivity profile (dissolution in water): instantaneous conductivity profile
